Consider six molecules from patent US10220033B2, “Substituted benzoxazepine for cancer therapy” (University of Cape Town, priority 2014, dated 2019).

For test [1], the system named is WHCO5 oesophageal cancer cell line. The experiment in a line: MTT assay for cell viability, IC50 determination. Type of test: cell-based, human. To be noted: Homo sapiens, compound in salt form. The protocol: (§1) Cells were plated in 96-well plates and treated with varying concentrations of a test compound for 48 hours, after which MTT dye, 3-(4,5-dimethylthiazol-2-yl)-2,5-diphenyltetrazolium bromide (Sigma), was added, and crystals solubilised 4 hours later using Solubilisation Reagent (10% SLS in 0.01 M HCl). Absorbencies were measured at 595 nm the following day using a BioTek microplate spectrophotometer (Winooski, Vt., USA) and IC50 curves were generated using GraphPad Prism.

The nature of test [2]: MTT assay for cell viability, IC50 determination. In kind it is cell-based. The settings on record: Homo sapiens, MCF-12A; MCF12A; compound in salt form. Here is the method: as §1
For orientation: Tetrazolium assays rely on reduction of a dye to a coloured formazan, in cell work by metabolically active cells.

The subject of test [3] is CaSki cervical cancer cell line. As to the kind of experiment: MTT assay for cell viability, IC50 determination. In kind it is cell-based. To be noted: Homo sapiens, Ca-Ski, read-out: IC50. Here is the method: as §1
Test [4] concerns DMB normal skin fibroblasts (non-cancer). The experiment in a line: MTT assay for cell viability, IC50 determination. Type of test: cell-based. The settings on record: Skin fibroblast; DMB; compound in salt form. Here is the method: as §1
Test [5] deals with EPC2 (EPC2-hTERT normal immortalised oesophageal epithelial cells). The experiment in a line: MTT assay for cell viability, IC50 determination. Type of test: cell-based. The settings on record: Homo sapiens, compound in salt form. The protocol: as §1
The test system of test [6] is HeLa cervical cancer cell line. As to the kind of experiment: MTT assay for cell viability, IC50 determination. The settings on record: Homo sapiens, HeLa, read-out: IC50. Type of test: cell-based. The protocol:
as §1

For test [7], the system named is KYSE150 oesophageal cancer cell line. As to the kind of experiment: MTT assay for cell viability, IC50 determination. To be noted: Homo sapiens, KYSE-150; Kyse150; compound in salt form. Type of test: cell-based. Here is the method:
as §1

For test [8], the system named is MCF7 breast cancer cell line. As to the kind of experiment: MTT assay for cell viability, IC50 determination. Type of test: cell-based. The settings on record: Homo sapiens, compound in salt form. The protocol:
as §1

Test [9] has as its system MDA-MB-231 breast cancer cell line. As to the kind of experiment: MTT assay for cell viability, IC50 determination. The settings on record: Homo sapiens, compound in salt form. Type of test: cell-based. The protocol:
as §1

In test [10] the test system is SVWI38 transformed cell line. As to the kind of experiment: MTT assay for cell viability, IC50 determination. Type of test: cell-based. To be noted: SVWI38; compound in salt form. The protocol: as §1
The test system of test [11] is WI38 non-cancer cell line. The experiment in a line: MTT assay for cell viability, IC50 determination. In kind it is cell-based. The settings on record: Homo sapiens, WI-38; WI38; compound in salt form. The protocol: as §1
Test [12] deals with FG0 normal skin fibroblasts (non-cancer). The experiment in a line: MTT assay for cell viability, IC50 determination. To be noted: Skin fibroblast, 48 hours. In kind it is cell-based. Here is the method:
as §1

In test [13] the test system is cancer cell lines. As to the kind of experiment: MTT cell viability, summary statements over panels of cancer cell lines. In kind it is cell-based. The settings on record: CaSki and HeLa (Tables 2 and 3); read-out: IC50 values (cancer cell-killing effects). Here is the method:
as §1

The test system of test [14] is p65 nuclear import (Kpnβ1 cargo protein). The experiment in a line: Percentage of nuclear and cytoplasmic p65 (FIG. 4). In kind it is cell-based.
Test [15] has as its system PARP cleavage in CaSki cells. As to the kind of experiment: PARP cleavage analysis by Western Blot. In kind it is cell-based. The settings on record: IC50 and twice the IC50 (FIG. 5), varying concentrations 12 hours (FIG. 26). The protocol: CaSki cells were treated with varying concentrations of Compound A for 12 hours, following which cells and cell floaters were harvested using RIPA buffer (10 mM Tris-Cl, pH 7.4, 150 mM NaCl, 1% sodium deoxycholate, 0.1% SDS, 1% Triton X-100, 1× complete protease inhibitor cocktail (Roche, Mannheim, Germany)) and Western Blot analysis performed, using a rabbit anti-Parp1/2 (H-250) antibody (sc-7150).
In general terms: Immunoblotting shows a protein as a band on a membrane.

In test [16] the test system is NFAT transcriptional activity in NFAT-transfected HeLa cells. The experiment in a line: NFAT luciferase reporter assay. Type of test: cell-based. To be noted: stimulated with TPA and ionomycin (FIGS. 16-20). Here is the method: To assay for NFAT luciferase activity, 30 000 HeLa cells were plated per well in 24-well plates, and transfected with 50 ng GFP-NFAT plasmid (Addgene plasmid #24219, gift of Jerry Crabtree (Beals C R, Clipstone N A, Ho S N, Crabtree G R. Nuclear localization of NF-ATc by a calcineurin-dependent, cyclosporin-sensitive intramolecular interaction. Genes Dev 1997 Apr. 1; 11(7):824-34)), 50 ng NFAT-luciferase (Addgene plasmid #10959, gift of Toren Finkel (Ichida M, Finkel T. Ras regulates NFAT3 activity in cardiac myocytes. J Biol Chem 2001 Feb. 2; 276(5):3524-30)), and 5 ng pRL-TK, using 0.4 μl Genecellin™ Transfection Reagent (Celtic Molecular Diagnostics, South Africa). The NFAT-luciferase reporter plasmid contains three tandem repeats of a 30 bp fragment of the IL-2 promoter known to bind NFAT. The following day cells were treated with 10 or 15 μM Compound A and after an overnight incubation, stimulated with 100 nM TPA (Sigma) and 1.3 μM Ionomycin (Santa Cruz Biotechnology, Santa Cruz, Calif., USA) for 5 hours, following which luciferase activity was measured.
An assay for nuclear NFAT following ionomycin and Compound A treatment was carried out, using an NFAT-luciferase reporter that is activated by nuclear NFAT. The phorbol ester TPA was used to co-stimulate NFAT, as it has been shown previously that TPA and ionomycin elicit synergistic stimulation of NFAT luciferase activity (Northrop J P, Ullman K S, Crabtree G R. Characterization of the nuclear and cytoplasmic components of the lymphoid-specific nuclear factor of activated T cells (NF-AT) complex. J Biol Chem 1993 Feb. 5; 268(4):2917-23).
In general terms: Reporter assays use an easily measured gene product as a stand-in for the process of interest.

The test system of test [17] is HeLa cancer cells and FG0 non-cancer cells. As to the kind of experiment: Cell proliferation monitored using the MTT assay (FIGS. 6 and 7). In kind it is cell-based. The settings on record: increasing concentrations; HeLa and FG0 (FIGS. 6 and 7).

By IC50 is commonly meant the midpoint of a concentration-inhibition curve.

Read-outs that look alike come from different tables or passages of the source.

Consider `Cc1ccc(OC[C@@H](O)CNCc2ccc3c(c2)OCO3)cc1C` [Compound XIII, 1-(benzo[1,3]dioxol-5-ylmethylamino)-3-(3,4-dimethylphenoxy)-propan-2-ol], for which the IC50 was determined as 40.1 µM in [1]; 49.3 µM in test [2]; 39.5 µM in [3] (48 h, MTT); 39.5 µM in test [3] (compound in salt form); 93 µM in test [4]; 34.6 µM in test [5]. Moreover, the 50% inhibitory concentration (IC50) came to 53.6 µM in test [6] (compound in salt form); 98.4 µM in test [7]; 44.5 µM in [8]; 33 µM in [9]; 42.1 µM in test [10]; 36.2 µM in [11].
`Cc1cccc(CN2CCOc3c(cc(-c4ccc(C)s4)cc3OCC3CCCN(C)C3)C2)n1` (stereo not shown) [Compound II, 9-[(1-methylpiperidin-3-yl)methoxy]-4-[(6-methylpyridin-2-yl)methyl]-7-(5-methylthiophen-2-yl)-3,5-dihydro-2H-1,4-benzoxazepine]: the IC50 in test [3] (48 h, MTT) was 11.4 µM; in test [12], 17.2 µM; in test [6] (48 h, 48 hours, MTT), 14.4 µM; in test [13], less than 50 µM. Further, the “nuclear import of Kpnβ1 cargo protein (percentage of nuclear p65 relative to cytoplasmic p65)” value in test [14] was “inhibit the nuclear import of Kpnβ1 cargo protein”. Besides, in test [15], the “PARP cleavage as an indicator of apoptosis” value was “induce cancer cell death via apoptosis”. Moreover, in test [16], the “NFAT activation (NFAT-luciferase reporter)” value is recorded as “significantly diminished NFAT activation”. The cell proliferation entry in [17] was “inhibit cell proliferation”.
With `CNC(=O)[C@@H]1C[C@H](NCc2ccc(OC)c3ccccc23)CN1Cc1ccccc1` [Compound III, (2S,4S)-1-benzyl-4-{[(4-methoxynaphthalen-1-yl)methyl]amino}-N-methylpyrrolidine-2-carboxamide], the IC50 in test [3] (48 h, MTT) is 34.1 µM; in test [12], 44.9 µM; in test [6] (48 h, 48 hours, MTT) it was 19.9 µM; in [13], less than 50 µM. Besides, the “nuclear import of Kpnβ1 cargo protein (percentage of nuclear p65 relative to cytoplasmic p65)” value in test [14] is reported as “inhibit the nuclear import of Kpnβ1 cargo protein”. The “PARP cleavage as an indicator of apoptosis” value in test [15] was “induce cancer cell death via apoptosis”. Moreover, in [16], the “NFAT activation (NFAT-luciferase reporter)” value was “significantly diminished NFAT activation”. Besides, the cell proliferation result in [17] is reported as “inhibit cell proliferation”.
Turning to `CC(C)Cc1ccc(CNCc2cccnc2N2CCCN(C)CC2)s1` [Compound XII, 1-(5-isobutyl-2-thienyl)-N-[[2-(4-methyl-1,4-diazepan-1-yl)-3-pyridyl]methyl]methanamine], the half-maximal inhibitory concentration (IC50) in test [1] was determined as 20.3 µM; in test [2] it was 34.1 µM; in test [3] (48 h, MTT), 27.4 µM; in [3] (compound in salt form) it was 27.4 µM; in [4] it was 57 µM; in [5], 41.6 µM. Besides, the IC50 came out at 23.1 µM in [6] (compound in salt form); 25.5 µM in test [7]; 44.9 µM in test [8]; 30 µM in test [9]; 31.3 µM in test [10]; 33.8 µM in test [11].
Take `Cc1csc2nc(CNCc3cc4cc5c(cc4n(CC4CCCCC4)c3=O)CCC5)cn12` [Compound X, 1-(cyclohexylmethyl)-3-[[(3-methylimidazo[2,1-b]thiazol-6-yl)methylamino]methyl]-7,8-dihydro-6H-cyclopenta[g]quinolin-2-one]: the IC50 was 20 µM in [1]; 11.7 µM in test [2]; 26.7 µM in test [3] (48 h, MTT); 26.7 µM in [3] (compound in salt form); 69.3 µM in [4]; 9.37 µM in test [5]. In addition, the concentration for half-maximal inhibition (IC50) in [6] (compound in salt form) amounted to 21.5 µM; in test [7], 32.2 µM; in test [8], 23.7 µM; in [9] it was 22.1 µM; in test [10], 33.5 µM; in test [11] it was 39.4 µM.
Take `Cc1cccc(N[C@@H](c2ccc(N(C)C)cc2)c2ccc3ccc(C)nc3c2O)n1` [Compound IX, 7-[(4-dimethylaminophenyl)-[(6-methyl-2-pyridyl)amino]methyl]-2-methyl-quinolin-8-ol]: the IC50 in [1] worked out at 22.4 µM; in test [2] it was 27.8 µM; in test [3] (48 h, MTT), 26.6 µM; in [3] (compound in salt form), 26.6 µM; in test [4], 40.9 µM; in test [5] it was 5.78 µM. The half-inhibitory concentration (IC50) in test [6] (compound in salt form) came out at 12.3 µM; in test [7] it was 9.08 µM; in test [8], 50.2 µM; in test [9] it was 10.4 µM; in test [10] it was 15.3 µM; in test [11], 20.8 µM.
